# Patent US8273780B2, “Polycyclic antagonists of lysophosphatidic acid receptors” (Amira Pharmaceuticals, Inc., priority 2009, dated 2012)
# What was measured:
# Format in all cases: cell-based
# [1] = target: T1, Human LPA1 (Homo sapiens, UniProt Q92633); experiment: LPA1 calcium flux assay; settings: CHO cells expressing human LPA1, 10 nM LPA; read-out: HLPA1 Ca Flux IC50
# T1 construct: the full-length cDNA for human LPA1 was obtained by PCR of the reverse transcription reaction; expressed in transfected cells
# T1 sequence (Q92633 whole entry): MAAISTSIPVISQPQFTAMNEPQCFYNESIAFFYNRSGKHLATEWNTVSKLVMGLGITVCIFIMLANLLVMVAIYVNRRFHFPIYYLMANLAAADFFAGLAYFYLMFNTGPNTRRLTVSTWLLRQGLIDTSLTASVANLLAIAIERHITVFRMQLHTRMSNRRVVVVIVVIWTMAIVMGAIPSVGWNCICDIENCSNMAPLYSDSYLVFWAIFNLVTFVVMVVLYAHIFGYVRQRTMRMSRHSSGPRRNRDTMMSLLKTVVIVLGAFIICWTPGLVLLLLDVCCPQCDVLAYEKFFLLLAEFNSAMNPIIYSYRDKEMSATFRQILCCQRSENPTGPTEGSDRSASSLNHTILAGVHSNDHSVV
# Procedure: A 1.1 kb cDNA encoding the human LPA1 receptor was cloned from human lung. Human lung RNA (Clontech Laboratories, Inc. USA) was reverse transcribed using the RETROscript kit (Ambion, Inc.) and the full-length cDNA for human LPA1 was obtained by PCR of the reverse transcription reaction. The nucleotide sequence of the cloned human LPA1 was determined by sequencing and confirmed to be identical to the published human LPA1 sequence (An et al. Biochem. Biophys. Res. Commun. 231:619 (1997). The cDNA was cloned into the pcDNA5/FRT expression plasmid and transfected in CHO cells using lipofectamine 2000 (Invitrogen Corp., USA). Clones stably expressing human LPA1 were selected using hygromycin and identified as cells that show Ca-influx in response to LPA.
# (§1) Human LPA1 or LPA3 expressing CHO cells are seeded at 20,000-45,000 cells per well in a 96-well poly-D-lysine coated plate one or two days before the assay. Prior to the assay, the cells are washed once with PBS and then cultured in serum-free media overnight. On the day of the assay, a calcium indicator dye (Calcium 4, Molecular Devices) in assay buffer (HBSS with Ca^2+and Mg^2+ and containing 20 mM Hepes and 0.3% fatty-acid free human serum albumin) is added to each well and incubation continued for 1 hour at 37° C. 10 μl of test compounds in 2.5% DMSO are added to the cells and incubation continued at room temperature for 30 minutes. Cells are the stimulated by the addition of 10 nM LPA and intracellular Ca^2+ measured using the Flexstation 3 (Molecular Devices). IC50s are determined using Graphpad prism analysis of drug titration curves.
# [2] = system: human A2058 melanoma cells; experiment: LPA1 chemotaxis assay; settings: 100 nM LPA, read-out: inhibition of LPA-driven chemotaxis IC50
# Procedure: Chemotaxis of the A2058 human melanoma cells was measured using the Neuroprobe ChemoTx® System plates (8 μM pore size, 5.7 mm diameter sites). The filter sites were coated with 0.001% fibronectin (Sigma) in 20 mM Hepes, pH 7.4 and allowed to dry. A2058 cells were serum-starved for 24 hours, then harvested with Cell Stripper and resuspended in DMEM containing 0.1% fatty-acid-free bovine serum albumin (BSA) to a concentration of 1×10^6/ml. Cells were mixed with an equal volume of test compound (2×) in DMEM containing 0.1% fatty-acid-free BSA and incubated at 37° C. for 15 minutes. LPA (100 nM in DMEM containing 0.1% fatty-acid-free BSA) or vehicle was added to each well of the lower chamber and 50 μl of the cell suspension/test compound mix was applied to the upper portion of the ChemoTx plate. Plates were incubated at 37° C. for three hours and then the cells removed from the upper portion by rinsing with PBS and scraping. The filter was dried then stained with HEMA 3 Staining System (Fisher Scientific). The absorbance of the filter was read at 590 nm and IC50s were determined using Symyx Assay Explorer.
# [3] = target: T2, Human LPA3 (Homo sapiens, UniProt Q9UBY5); experiment: LPA3 calcium flux assay; settings: CHO cells expressing human LPA3, 10 nM LPA; read-out: HLPA3 Ca Flux IC50
# T2 construct: The full-length cDNA fragment for human LPA3 was obtained by PCR from the vector; expressed in transfected cells; cDNA from the Missouri S&T cDNA Resource Center
# T2 sequence (Q9UBY5 1-353): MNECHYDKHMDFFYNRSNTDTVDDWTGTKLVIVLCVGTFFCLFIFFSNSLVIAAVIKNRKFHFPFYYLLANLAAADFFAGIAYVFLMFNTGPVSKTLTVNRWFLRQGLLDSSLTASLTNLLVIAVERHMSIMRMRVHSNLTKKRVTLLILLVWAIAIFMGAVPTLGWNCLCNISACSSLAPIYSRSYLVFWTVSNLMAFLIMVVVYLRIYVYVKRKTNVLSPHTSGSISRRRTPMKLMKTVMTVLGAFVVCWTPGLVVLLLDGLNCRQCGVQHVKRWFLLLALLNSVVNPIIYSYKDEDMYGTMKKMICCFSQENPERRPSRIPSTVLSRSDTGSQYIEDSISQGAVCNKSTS
# Procedure: A vector containing the human LPA3 receptor cDNA was obtained from the Missouri S&T cDNA Resource Center (www.cdna.org). The full-length cDNA fragment for human LPA3 was obtained by PCR from the vector. The nucleotide sequence of the cloned human LPA3 was determined by sequencing and confirmed to be identical to the published human LPA3 sequence (NCBI accession number NM_012152). The cDNA was cloned into the pcDNA5/FRT expression plasmid and transfected in CHO cells using lipofectamine 2000 (Invitrogen Corp., USA). Clones stably expressing human LPA3 were selected using hygromycin and identified as cells that show Ca-influx in response to LPA.
# as §1
Structure (SMILES),IC50 [1],IC50 [2],IC50 [3]
"Cc1noc(-c2ccc(-c3ccc(C4(C(=O)O)CC4)cc3)cc2)c1NC(=O)OCc1ccccc1 [Compound 4, 1-[4′-(4-Benzyloxycarbonylamino-3-methyl-isoxazol-5-yl)-biphenyl-4-yl]-cyclopropanecarboxylic acid]",< 300 nM,< 100 nM,> 10000 nM
"Cc1noc(-c2ccc(-c3ccc(C4(C(=O)O)CC4)cc3)cc2)c1NC(=O)O[C@H](C)c1ccccc1Cl [Compound 8, 1-(4′-{4-[(R)-1-(2-Chloro-phenyl)-ethoxycarbonylamino]-3-methyl-isoxazol-5-yl}-biphenyl-4-yl)-cyclopropanecarboxylic acid]",< 300 nM,< 100 nM,300 to 1000 nM
"Cc1ccc([C@@H](C)OC(=O)Nc2c(C)noc2-c2ccc(-c3ccc(C4(C(=O)O)CC4)cc3)cc2)cc1 [Compound 16, 1-{4′-[3-Methyl-4-((R)-1-p-tolyl-ethoxycarbonylamino)-isoxazol-5-yl]-biphenyl-4-yl}-cyclopropanecarboxylic acid]",< 300 nM,< 100 nM,1000 to 10000 nM
"Cc1cccc([C@@H](C)OC(=O)Nc2c(C)noc2-c2ccc(-c3ccc(C4(C(=O)O)CC4)cc3)cc2)c1 [Compound 17, 1-{4′-[3-Methyl-4-((R)-1-m-tolyl-ethoxycarbonylamino)-isoxazol-5-yl]-biphenyl-4-yl}-cyclopropanecarboxylic acid]",< 300 nM,< 100 nM,300 to 1000 nM
"Cc1noc(-c2ccc(-c3ccc(C4(C(=O)O)CC4)cc3)cc2)c1NC(=O)O[C@H](C)c1ccccc1C#N [Compound 19, 1-(4′-{4-[(R)-1-(2-Cyano-phenyl)-ethoxycarbonylamino]-3-methyl-isoxazol-5-yl}-biphenyl-4-yl)-cyclopropanecarboxylic acid]",< 300 nM,< 100 nM,1000 to 10000 nM
"Cc1noc(-c2ccc(-c3ccc(C4(C(=O)O)CC4)cc3)cc2)c1NC(=O)OC(C)C1=C(Cl)CCCC1 (centres unmarked) [Compound 21, 1-(4′-{4-[1-(2-Chloro-cyclohex-1-enyl)-ethoxycarbonylamino]-3-methyl-isoxazol-5-yl}-biphenyl-4-yl)-cyclopropanecarboxylic acid]",< 300 nM,< 100 nM,< 300 nM
"CCc1noc(-c2ccc(-c3ccc(C4(C(=O)O)CC4)cc3)cc2)c1NC(=O)O[C@H](C)c1ccccc1 [Compound 29, 1-{4′-[3-Ethyl-4-((R)-1-phenyl-ethoxycarbonylamino)-isoxazol-5-yl]-biphenyl-4-yl}-cyclopropanecarboxylic acid]",< 300 nM,< 100 nM,300 to 1000 nM
"CCc1noc(-c2ccc(-c3ccc(C4(C(=O)O)CC4)cc3)cc2)c1NC(=O)O[C@H](C)c1cccc(C(F)(F)F)c1 [Compound 30, 1-(4′-{3-Ethyl-4-[(R)-1-(3-trifluoromethyl-phenyl)-ethoxycarbonylamino]-isoxazol-5-yl}-biphenyl-4-yl)-cyclopropanecarboxylic acid]",< 300 nM,,< 300 nM
"COc1cc(-c2ccc(C3(C(=O)O)CC3)cc2)ccc1-c1onc(C)c1NC(=O)O[C@H](C)c1cccc(C(F)(F)F)c1 [Compound 31, 1-(3′-Methoxy-4′-{3-methyl-4-[(R)-1-(3-trifluoromethyl-phenyl)-ethoxycarbonylamino]-isoxazol-5-yl}-biphenyl-4-yl)-cyclopropanecarboxylic acid]",< 300 nM,,< 300 nM
"Cc1noc(-c2ccc(-c3ccc(C4(C(=O)O)CC4)cc3)cc2)c1NC(=O)O[C@H](C)c1cc(Br)cc(Br)c1 [Compound 32, 1-(4′-{4-[(R)-1-(3,5-Dibromo-phenyl)-ethoxycarbonylamino]-3-methyl-isoxazol-5-yl}-biphenyl-4-yl)-cyclopropanecarboxylic acid]",< 300 nM,,1000 to 10000 nM
"C[C@@H](OC(=O)Nc1cnoc1-c1ccc(-c2ccc(C3(C(=O)O)CC3)cc2)cc1)c1ccccc1 [Compound 33, 1-{4′-[4-((R)-1-Phenyl-ethoxycarbonylamino)-isoxazol-5-yl]-biphenyl-4-yl}-cyclopropanecarboxylic acid]",< 300 nM,,1000 to 10000 nM
"Cc1noc(-c2ccc(-c3ccc(C4(C(=O)NS(C)(=O)=O)CC4)cc3)cc2)c1NC(=O)O[C@H](C)c1ccccc1 [Compound 35, {5-[4′-(1-Methanesulfonylaminocarbonyl-cyclopropyl)-biphenyl-4-yl]-3-methyl-isoxazol-4-yl}-carbamic acid (R)-1-phenyl-ethyl ester]",< 300 nM,< 100 nM,1000 to 10000 nM
"Cc1noc(-c2ccc(-c3ccc(C4(C(=O)NS(=O)(=O)c5ccccc5)CC4)cc3)cc2)c1NC(=O)O[C@H](C)c1ccccc1 [Compound 36, {5-[4′-(1-Benzenesulfonylaminocarbonyl-cyclopropyl)-biphenyl-4-yl]-3-methyl-isoxazol-4-yl}-carbamic acid (R)-1-phenyl-ethyl ester]",< 300 nM,< 100 nM,1000 to 10000 nM
"Cc1noc(-c2ccc(-c3ccc(C4(C#N)CC4)cc3)cc2)c1NC(=O)O[C@H](C)c1ccccc1 [Compound 37, {5-[4′-(1-Cyano-cyclopropyl)-biphenyl-4-yl]-3-methyl-isoxazol-4-yl}-carbamic acid (R)-1-phenyl-ethyl ester]",1000 to 10000 nM,,> 10000 nM
"Cc1noc(-c2ccc(-c3ccc(C4(c5nc(=O)o[nH]5)CC4)cc3)cc2)c1NC(=O)O[C@H](C)c1ccccc1 [Compound 38, (3-Methyl-5-{4′-[1-(5-oxo-2,5-dihydro-[1,2,4]oxadiazol-3-yl)-cyclopropyl]-biphenyl-4-yl}-isoxazol-4-yl)-carbamic acid (R)-1-phenyl-ethyl ester]",< 300 nM,< 100 nM,1000 to 10000 nM
"Cc1noc(-c2ccc(-c3ccc(C4(c5nnn[nH]5)CC4)cc3)cc2)c1NC(=O)O[C@H](C)c1ccccc1 [Compound 39, (3-Methyl-5-{4′-[1-(1H-tetrazol-5-yl)-cyclopropyl]-biphenyl-4-yl}-isoxazol-4-yl)-carbamic acid (R)-1-phenyl-ethyl ester]",< 300 nM,< 100 nM,1000 to 10000 nM
"Cc1noc(-c2ccc(-c3ccc(C4(C(=O)NS(C)(=O)=O)CC4)cc3)cc2)c1NC(=O)O[C@H](C)c1cccc(C(F)(F)F)c1 [Compound 40, {5-[4′-(1-Methanesulfonylaminocarbonyl-cyclopropyl)-biphenyl-4-yl]-3-methyl-isoxazol-4-yl}-carbamic acid (R)-1-(3-trifluoromethyl-phenyl)-ethyl ester]",< 300 nM,,300 to 1000 nM
"COc1cc(-c2ccc(C3(C(=O)NS(C)(=O)=O)CC3)cc2)ccc1-c1onc(C)c1NC(=O)O[C@H](C)c1cccc(C(F)(F)F)c1 [Compound 41, {5-[4′-(1-Methanesulfonylaminocarbonyl-cyclopropyl)-3-methoxy-biphenyl-4-yl]-3-methyl-isoxazol-4-yl}-carbamic acid (R)-1-(3-trifluoromethyl-phenyl)-ethyl ester]",< 300 nM,,300 to 1000 nM
